pEC50, pIC50: −log10 of the molar value. Like-named read-outs stand apart in the source and are kept apart here. Residues, ends and D or L forms follow the SMILES beside them.

Assay type in all cases: cell-based
For series [1], the system named is Meth A murine sarcoma cell line.
Procedure: Peptide solutions (0.1 ml) were added and the plates incubated at 37° C. for 30 minutes, 4 hours or 24 hours. The cytotoxicity was measured using the MTT method (Mosmann et al., J. Immunol. (1986) 136, 2348-2357).
Series [2] concerns MRC-5 cells (normal fibroblasts). As to the kind of experiment: Fibroblast assay (MTT). As for the experimental part: The cells were washed with PBS and then trypsinated using 2 ml trypsin (for a 80 cm culture flask). After the cells had detached from the wall, usually after ca 3 min. of incubation, 5 ml medium with FBS were added. The cells were resuspended and counted. The cells were then transferred to a centrifugation tube and spinned at 1500 rpm for 10 min. The supernatant was removed and the cells resuspended to a concentration of 1×10^5 cells/ml. 100 ul cells suspension was transferred to each well in a 96-well microtiter plate and incubated for 25 hours to allow the cells to attach. Following the incubation, the medium containing serum was removed by turning the plate upside down against a piece of tissue. 100 ul medium without serum and L-glutamine (assay medium) was added to each well, and then removed as before. This was done to remove any trace of serum. […] The rest of the assay was done as previously described for methA, except that after the 2 hour incubation following MTT addition, 80 ul medium instead of 130 ul were removed.

In another series the test system is human red blood cells. Kind of series: Hemolytic assay. On the procedure: The hemolytic activities of the peptides were determined using fresh human red blood cells. 8 ml blood was taken from a healthy person. 4 ml blood was transferred to a polycarbonate tube containing heparin to a final concentration of 10 U/ml, and the remaining 4 ml blood was transferred to a glass tube containing EDTA with final concentration of 15% EDTA. The erythrocytes were isolated from heparin-treated blood by centrifugation in 1500 rpm for 10 min and washed three times with phosphate-buffered saline (PBS) to remove plasma and buffy coat. The cell pellet was resuspended in PBS to make the final volume of 4 ml. The peptide was diluted to a concentration of 2 mg/ml and 0.1 mg/ml. The peptide was further diluted to the concentrations as stated in Table 1. For each tube PBS was added first, then RBCs and peptide solutions. The hematocrit in the blood treated with EDTA was determined after 30 min with Sysmex K-1000, and the resuspended RBCs were diluted into 10% hematocrit. RBCs in PBS (1%) with and without peptides (Table 18) were incubated in a shaker at […] for 1 hour and then centrifuged at 4000 rpm for 5 min. The supernatant were carefully transferred to new polycarbonate tubes and the absorbance of the supernatant was measured at 540 nm. Baseline hemolysis was hemoglobin released in the presence of PBS, and 100% hemolysis was hemoglobin released in the presence of 0.1% Triton X-100.

[3] abbreviates: Table 3, unit inferred, read-out: Meth A IC50.
The mark [4] stands for this setting: Table 3, unit inferred, read-out: Fib IC50.
[5] abbreviates: Table 3, unit inferred, read-out: RBC EC50.

For orientation: pIC50 means the negative decadic logarithm of the IC50, by convention in mol/L. What is called pEC50 is the EC50 on a negative log10 scale, so that one unit is a factor of ten. Regarding (KAAKKAA)3 F2,9,16,20 [KA17], the pIC50 in series [1] (setting [3]) is 4.43; in series [2] (setting [4]), under 3.37. Moreover, in the series on human red blood cells (setting [5]), the pEC50 was under 3.37.

Turning to `C[C@H](NC(=O)[C@H](C)NC(=O)[C@H](CCCCN)NC(=O)[C@H](CCCCN)NC(=O)[C@H](C)NC(=O)[C@H](Cc1c[nH]c2ccccc12)NC(=O)[C@H](CCCCN)NC(=O)[C@H](Cc1c[nH]c2ccccc12)NC(=O)[C@H](C)NC(=O)[C@H](CCCCN)NC(=O)[C@H](CCCCN)NC(=O)[C@H](C)NC(=O)[C@H](C)NC(=O)[C@@H](N)CCCCN)C(=O)N[C@@H](CCCCN)C(=O)N[C@@H](Cc1c[nH]c2ccccc12)C(=O)N[C@@H](C)C(=O)N[C@@H](CCCCN)C(=O)O` [KA 18W7,9,16] (H-KAAKKAWKWAKKAAKWAK-OH; N-terminus and C-terminus assumed), the pIC50 in series [1] (4 h) was 4.49; in series [2] it was under 3.68. The pEC50 in the series with human red blood cells (red cells of human) was under 3.37.

For the molecule `CC[C@H](C)[C@H](NC(=O)[C@H](CCCNC(=N)N)NC(=O)[C@H](Cc1ccccc1)NC(=O)[C@H](C)NC(=O)[C@H](CCCCN)NC(=O)[C@H](CCCNC(=N)N)NC(=O)[C@H](Cc1c[nH]c2ccccc12)NC(=O)[C@H](C)NC(=O)[C@@H]1CCCN1)C(=O)N[C@@H](C)C(=O)N[C@@H](Cc1c[nH]c2ccccc12)C(=O)N[C@@H](CCCNC(=N)N)C(=O)N[C@@H](CCSC)C(=O)N[C@@H](CC(C)C)C(=O)N[C@@H](CCCCN)C(=O)N[C@@H](CCCCN)C(=O)N[C@@H](C)C(=O)N[C@@H](C)C(=O)O` [W9→I9] (H-PAWRKAFRIAWRMLKKAA-OH; N-terminus and C-terminus assumed), the pEC50 in the series on human red blood cells (red cells of human) was 3.81.

For (KAAKKAA)3 W2,9,16 [KA 5], the pIC50 in series [1] (setting [3]) was 4.82; in series [2] (setting [4]) it was 3.52. For the same molecule, in the series on human red blood cells (setting [5]), the pEC50 was under 3.37.

On to `CSCC[C@H](NC(=O)[C@H](CCCNC(=N)N)NC(=O)[C@H](Cc1c[nH]c2ccccc12)NC(=O)[C@H](C)NC(=O)[C@H](Cc1c[nH]c2ccccc12)NC(=O)[C@H](CCCNC(=N)N)NC(=O)[C@H](Cc1ccccc1)NC(=O)[C@H](C)NC(=O)[C@H](CCCCN)NC(=O)[C@H](CCCNC(=N)N)NC(=O)[C@H](Cc1c[nH]c2ccccc12)NC(=O)[C@H](C)NC(=O)[C@@H]1CCCN1)C(=O)N[C@@H](CC(C)C)C(=O)N[C@@H](CCCCN)C(=O)N[C@@H](CCCCN)C(=O)N[C@@H](C)C(=O)N[C@@H](C)C(=O)O` [LFB (14-31)m, PAWRKAFRWAWRMLKKAA] (H-PAWRKAFRWAWRMLKKAA-OH), for which the “toxicity to fibroblasts” value in series [2] was “highly toxic to fibroblasts”.

As for (KAAKKAA)3 W2,3,20 [KA15], the values for the pIC50 in series [1] (setting [3]) and in series [2] (setting [4]) were 4.80 and 3.61, respectively. The pEC50 with human red blood cells (setting [5]) is under 3.37.

Take WKWAKKAAKWAWKAA [KA20, 15-mer]: the pIC50 was 3.85 in series [1] (setting [3]) and 3.51 in series [2] (setting [4]). Moreover, in the series with human red blood cells (setting [5]), the pEC50 is under 3.26.

As for (KAAKKAA)3 W2,3,20,21 [KA19], the results for the pIC50 in series [1] (setting [3]) and in series [2] (setting [4]) were 4.72 and 3.43, respectively. Besides, the pEC50 in the series on human red blood cells (setting [5]) was under 3.40.

`C[C@H](NC(=O)[C@H](C)NC(=O)[C@H](CCCCN)NC(=O)[C@H](CCCCN)NC(=O)[C@H](Cc1c[nH]c2ccccc12)NC(=O)[C@H](C)NC(=O)[C@H](CCCCN)NC(=O)[C@H](C)NC(=O)[C@H](Cc1c[nH]c2ccccc12)NC(=O)[C@H](CCCCN)NC(=O)[C@H](CCCCN)NC(=O)[C@H](C)NC(=O)[C@H](C)NC(=O)[C@@H](N)CCCCN)C(=O)N[C@@H](CCCCN)C(=O)N[C@@H](C)C(=O)N[C@@H](Cc1c[nH]c2ccccc12)C(=O)N[C@@H](CCCCN)C(=O)O` [KA 18W6,10,17] (H-KAAKKWAKAWKKAAKAWK-OH; N-terminus and C-terminus assumed): the pIC50 in series [1] (Table 1, KA18 peptides, read-out: IC50 Meth A) is at most 3.68; in series [2], under 3.68. Also, in the series on human red blood cells (red cells of human), the pEC50 was under 3.37.

With (KAAKKAA)3 Bip9,16 [KA27], the pIC50 in series [1] (setting [3]) is 4.62; in series [2] (setting [4]) it was under 3.37. In addition, the pEC50 with human red blood cells (setting [5]) was under 3.37.

With KKAWKWAKKAWKWAKKA [KA18], the pIC50 in series [1] (setting [3]) is 5.10; in series [2] (setting [4]), 3.94. The pEC50 in the series on human red blood cells (setting [5]) was under 3.35.

Take (KAAKKAA)3 W9,16 [KA 7]: the pIC50 in series [1] (setting [3]) is under 3.65; in series [2] (setting [4]), under 3.35. Also, the pEC50 in the series with human red blood cells (setting [5]) is under 3.35.

In the case of (OAAOOAA)3 W7,9,14,16 [KA14], the pIC50 in series [1] (setting [3]) was 5.30; in series [2] (setting [4]), 4.22. In the series with human red blood cells (setting [5]), the pEC50 was under 3.37.

As for (KAAKKAA)3 W2,9,16,20 [KA 8], the negative-log IC50 (pIC50) in series [1] (setting [3]) is 5.40; in series [2] (setting [4]) it was 4.64. Further, the pEC50 with human red blood cells (setting [5]) is under 3.40.

As for `C[C@H](NC(=O)[C@H](C)NC(=O)[C@H](CCCCN)NC(=O)[C@H](C)NC(=O)[C@H](C)NC(=O)[C@H](CCCCN)NC(=O)[C@H](CCCCN)NC(=O)[C@H](Cc1c[nH]c2ccccc12)NC(=O)[C@H](C)NC(=O)[C@H](CCCCN)NC(=O)[C@H](C)NC(=O)[C@H](C)NC(=O)[C@H](CCCCN)NC(=O)[C@H](CCCCN)NC(=O)[C@H](C)NC(=O)[C@H](C)NC(=O)[C@@H](N)CCCCN)C(=O)N[C@@H](CCCCN)C(=O)O` [KA 18W10] (H-KAAKKAAKAWKKAAKAAK-OH; N-terminus and C-terminus assumed), the pIC50 in series [1] (4 h) and in series [2] was under 3.63 throughout. In the series with human red blood cells (red cells of human), the pEC50 was under 3.33.

In the case of `C[C@H](NC(=O)[C@H](C)NC(=O)[C@H](CCCCN)NC(=O)[C@H](CCCCN)NC(=O)[C@H](C)NC(=O)[C@H](C)NC(=O)[C@@H](N)CCCCN)C(=O)N[C@@H](CCCCN)C(=O)N[C@@H](C)C(=O)N[C@@H](C)C(=O)N[C@@H](CCCCN)C(=O)N[C@@H](CCCCN)C(=O)N[C@@H](C)C(=O)N[C@@H](C)C(=O)N[C@@H](CCCCN)C(=O)N[C@@H](Cc1c[nH]c2ccccc12)C(=O)N[C@@H](C)C(=O)N[C@@H](CCCCN)C(=O)O` [KA 18W16] (H-KAAKKAAKAAKKAAKWAK-OH; N-terminus and C-terminus assumed), the pIC50 in series [1] (4 h) and in series [2] was under 3.63 throughout. The pEC50 in the series on human red blood cells (red cells of human) was under 3.33.

For (KAAKKAA)3 W6,10,17 [KA 31], the pIC50 in series [1] (setting [3]) is 3.83; in series [2] (setting [4]), under 3.37. In the series with human red blood cells (setting [5]), the pEC50 was under 3.37.

Consider (KAAKKAA)3 W7,16,17 [KA24], for which the pIC50 in series [1] (setting [3]) was 4.54; in series [2] (setting [4]) it was under 3.37. Also, the pEC50 in the series on human red blood cells (setting [5]) was under 3.37.

Consider `C[C@H](NC(=O)[C@H](C)NC(=O)[C@H](CCCCN)NC(=O)[C@H](Cc1c[nH]c2ccccc12)NC(=O)[C@H](C)NC(=O)[C@H](CCCCN)NC(=O)[C@H](CCCCN)NC(=O)[C@H](C)NC(=O)[C@H](C)NC(=O)[C@@H](N)CCCCN)C(=O)N[C@@H](CCCCN)C(=O)N[C@@H](CCCCN)C(=O)N[C@@H](C)C(=O)N[C@@H](C)C(=O)N[C@@H](CCCCN)C(=O)N[C@@H](Cc1c[nH]c2ccccc12)C(=O)N[C@@H](C)C(=O)N[C@@H](CCCCN)C(=O)O` [KA W7,16] (H-KAAKKAWKAAKKAAKWAK-OH; N-terminus and C-terminus assumed), for which the pIC50 in series [1] (4 h) and in series [2] was under 3.65 each time. Further, the pEC50 with human red blood cells (red cells of human) is under 3.35.

As for KKWAKKAWKWAKKAW [KA22, 15-mer], the pIC50 in series [1] (setting [3]) is 4.52; in series [2] (setting [4]), under 3.29. The negative-log EC50 (pEC50) in the series with human red blood cells (setting [5]) is under 3.29.

With (KAAKKAA)3 W7,9,14,16 [KA 4], the pIC50 in series [1] (setting [3]) was 5.30; in series [2] (setting [4]), 4.52. In the series with human red blood cells (setting [5]), the pEC50 is under 3.40.

For (KAAKKAA)3 W7,9,16 [KA 32], the pIC50 in series [1] (setting [3]) is 4.55; in series [2] (setting [4]) it was under 3.37. The pEC50 in the series on human red blood cells (setting [5]) was under 3.37.

In the case of (KAAKKAA)3 W7,10,17 [KA23], the pIC50 was 3.96 in series [1] (setting [3]) and under 3.37 in series [2] (setting [4]). The pEC50 with human red blood cells (setting [5]) is under 3.37.

On to WKWAKKAWKWAKKAA [KA21, 15-mer], for which the pIC50 in series [1] (setting [3]) is 4.49; in series [2] (setting [4]) it was under 3.28. Moreover, in the series with human red blood cells (setting [5]), the negative logarithm of the EC50 (pEC50) is under 3.28.
